Results from publication PMC11141866, “Pyrimidine depletion enhances targeted and immune therapy combinations in acute myeloid leukemia” (JCI Insight, 2024).
“And” between values parts separate entries of the source, which are not always exact repeats. Equal entries are not always repeated. Where two headings read alike, the source gives them in different places.

How the values were obtained:
[1] = target: CYP 1A2 (Homo sapiens, UniProt P05177); experiment: CYP inhibition 1A2; format: in vitro ADME
Chain of CYP 1A2 (P05177 whole entry): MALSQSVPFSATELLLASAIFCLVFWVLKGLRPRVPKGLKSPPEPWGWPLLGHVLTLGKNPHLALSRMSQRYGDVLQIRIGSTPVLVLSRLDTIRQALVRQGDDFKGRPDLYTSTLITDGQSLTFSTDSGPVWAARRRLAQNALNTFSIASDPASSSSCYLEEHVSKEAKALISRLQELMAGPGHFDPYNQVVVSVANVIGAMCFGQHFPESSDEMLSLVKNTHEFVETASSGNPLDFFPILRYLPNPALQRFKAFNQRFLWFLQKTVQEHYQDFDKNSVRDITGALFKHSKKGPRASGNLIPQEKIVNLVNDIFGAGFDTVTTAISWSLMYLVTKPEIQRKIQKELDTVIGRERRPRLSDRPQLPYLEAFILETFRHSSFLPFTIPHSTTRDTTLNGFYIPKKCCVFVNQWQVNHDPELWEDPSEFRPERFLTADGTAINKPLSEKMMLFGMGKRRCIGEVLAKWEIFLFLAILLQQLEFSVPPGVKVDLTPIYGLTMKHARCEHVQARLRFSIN
Source text: (§1) Supplement jciinsight-9-173646-s083.xlsx, sheet "Supplemental Table S.2." | column: HOSU-53

[2] = Micronucleus Test; conditions: 5 strain test with S9 activation (so in the source)
Source text: as §1

[3] = Single-dose HOSU-53 PK in mice; format: in vivo, male C57BL/6 mice
Method: In the i.v. cohort, serial blood samples were collected in tubes containing K2EDTA at 0.083, 0.25, 0.5, 1, 2, 6, 24, 48, and 72 hours postdose while in the oral gavage cohort, serial blood samples were collected at 0.25, 0.5, 1, 2, 4, 8, 24, 48, and 72 hours postdose. Blood samples were processed to plasma to analyze for HOSU-53 and L-dihydroorotic acid (DHO) concentrations using liquid chromatography-tandem mass spectrometry. page 6: Plasma samples were obtained following appropriate dosing administration and saved in the -80°C freezer till the time of analysis. Analyses by LC-MS/MS followed sample extraction by protein precipitation and separation by Ultra Performance Liquid Chromatography (UPLC, Waters Corporation, MA, USA) using a C18 column, 1.7um, 2.1x50mm, Mobile Phase A: 5:95:0.1 (v:v:v) Acetonitrile:Water:Formic Acid, Mobile Phase B: 50:50:0.1 (v:v:v) Methanol:Acetonitrile:Formic Acid. MS/MS analyses were performed on an API-6500 (Absciex MA, USA) in positive mode using an electrospray source at 550°C. The internal standard was d4-AEA monitored at 352.2 and 66.0 m/z transitions and the target analyte, HOSU-53, was monitored at 416.5 and 331.1 m/z transitions. The assay was qualified between 10-5,000 ng/ml HOSU53 to be within ±20% for QCs above the LLOQ in this range and ±25% at the LLOQ. DHO concentration quantification in mouse plasma samples. Plasma samples were obtained following appropriate dosing administration and saved in the -80°C freezer till the time of analysis. Analyses by LC-MS/MS followed sample extraction by protein precipitation and separation by Ultra Performance Liquid Chromatography (UPLC, Waters Corporation, MA, USA) using a Phenomenex Aqua C18 100x4.6mm, 3uM, […], Mobile Phase A: 100:0.1 (v:v) Water:Formic Acid, Mobile Phase B: 100:0.1 (v:v) Methanol:Formic Acid. MS/MS analyses were performed on an API-4000 (Absciex MA, USA) in negative mode using an electrospray source at 550°C. The internal standard was labeled 13C14_L-Dihydroorotic Acid monitored at 161.3 and 117.1 m/z transitions and the target analyte, L-Dihydroorotic Acid (DHO), was monitored at 157.0 and 70.0 m/z transitions. The assay was qualified between 10.0-30,000 ng/ml DHO to be within ±20% for QCs above the LLOQ in this range and ±25% at the LLOQ.

[4] = LogD; format: physicochemical; conditions: pH 7.4
Source text: as §1

[5] = target: T1, human DHODH (hDHODH, amino acid residues 31-395) (Homo sapiens, UniProt Q02127); experiment: Cell-free human DHODH enzyme inhibition assay; format: biochemical
T1 construct: purchased Reaction Biology (assay run there as a service)
T1 sequence (Q02127 31-395): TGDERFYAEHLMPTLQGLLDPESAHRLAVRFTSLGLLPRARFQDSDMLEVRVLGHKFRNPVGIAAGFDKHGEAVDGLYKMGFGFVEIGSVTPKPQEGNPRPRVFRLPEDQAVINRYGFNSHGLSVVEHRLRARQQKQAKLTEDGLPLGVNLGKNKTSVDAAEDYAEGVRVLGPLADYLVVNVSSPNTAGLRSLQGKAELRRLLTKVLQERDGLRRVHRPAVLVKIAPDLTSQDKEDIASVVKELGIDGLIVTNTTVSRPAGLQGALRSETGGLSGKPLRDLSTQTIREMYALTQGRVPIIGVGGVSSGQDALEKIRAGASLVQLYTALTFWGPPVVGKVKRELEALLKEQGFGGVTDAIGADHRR
Method: Details are described in the Supplemental Methods. […]
Enzyme inhibition of human DHODH […]
performed at Reaction Biology (Malvern, PA, USA). Briefly, a two-step fluorescence-based assay was used to test compounds in duplicates using a 10-dose IC50 mode with 3-fold serial dilution starting at 1 µM or 10 µM. The enzymatic step for hDHODH (used at […]
to orotate and followed by resazurin (used at 60 or 80 µM per reaction) catalyzed to […]
resorufin. […]

[6] = target: CYP 2D6 (Homo sapiens, UniProt P10635); experiment: CYP inhibition 2D6; format: in vitro ADME
Chain of CYP 2D6 (P10635 whole entry): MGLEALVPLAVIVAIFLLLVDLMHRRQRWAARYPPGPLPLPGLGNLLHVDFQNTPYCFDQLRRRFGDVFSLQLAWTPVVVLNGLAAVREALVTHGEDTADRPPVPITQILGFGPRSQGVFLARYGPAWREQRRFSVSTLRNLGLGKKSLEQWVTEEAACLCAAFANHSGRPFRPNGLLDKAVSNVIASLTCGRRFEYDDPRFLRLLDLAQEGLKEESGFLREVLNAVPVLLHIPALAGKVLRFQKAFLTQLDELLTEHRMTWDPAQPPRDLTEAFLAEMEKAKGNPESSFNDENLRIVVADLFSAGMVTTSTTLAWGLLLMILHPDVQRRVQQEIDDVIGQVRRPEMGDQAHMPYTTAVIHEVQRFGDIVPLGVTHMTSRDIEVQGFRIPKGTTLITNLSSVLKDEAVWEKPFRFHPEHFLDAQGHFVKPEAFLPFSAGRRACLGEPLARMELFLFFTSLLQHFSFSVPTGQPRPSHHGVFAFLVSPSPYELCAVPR
Source text: as §1

[7] = system: MOLM-13 disseminated CDX AML model; experiment: MOLM-13 CDX synergy with anti-CD38 immunotherapy; format: in vivo, NCG mice; conditions: HOSU53 10 mpk qd; event 1 = death; 10 mg/kg
Method: Male 8- to 12-week-old male NCG mice were engrafted with 1 × 10^5 cells via tail vein i.v. injection. […] Figure 7, B and C, and Supplemental Figure 7, A and B, share 2 combined vehicle groups (n = 16 total).
Supplemental Figure S.7. […] Using the
daratumumab (Dara) (A) or biwk 2.5 mg/kg i.p isatuximab, Isa (B) anti-CD38 antibodies or a
Treatment was stopped at day
80. Adjusted FDR p-value *<0.05, nonsignificant (ns) ≥0.05.
Both Supplementary Figure S.7, A and B share the same vehicle and 4 mg/kg
(1 picture or pasted object on this page, not shown here)

[8] = target: T2, PPARγ (Homo sapiens, UniProt P37231); experiment: CEREP Safety Screen 87; format: binding; conditions: 1 µM
T2 construct: purchased CEREP (Safety Screen 87 panel, as the earlier reading names the assay)
T2 sequence (P37231 whole entry): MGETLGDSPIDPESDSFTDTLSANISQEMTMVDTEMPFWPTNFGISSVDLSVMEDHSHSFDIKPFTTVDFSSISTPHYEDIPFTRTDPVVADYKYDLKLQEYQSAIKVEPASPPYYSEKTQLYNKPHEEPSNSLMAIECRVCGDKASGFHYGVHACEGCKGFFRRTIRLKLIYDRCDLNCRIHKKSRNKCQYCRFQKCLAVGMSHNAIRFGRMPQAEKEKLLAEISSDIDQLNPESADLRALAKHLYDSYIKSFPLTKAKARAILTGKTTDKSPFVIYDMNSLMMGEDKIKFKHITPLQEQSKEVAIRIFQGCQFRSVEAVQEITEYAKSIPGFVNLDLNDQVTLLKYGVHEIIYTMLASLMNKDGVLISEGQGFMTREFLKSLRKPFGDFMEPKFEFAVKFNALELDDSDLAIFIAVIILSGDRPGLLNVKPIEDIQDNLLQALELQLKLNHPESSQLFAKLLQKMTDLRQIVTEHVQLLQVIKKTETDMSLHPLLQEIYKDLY
Source text: as §1

[9] = male, C57BL/6, plasma, po, 10 mg/kg p.o. single dose, mouse

**Q.** For `CCCCOc1cccc(-c2ccc(-c3cc(C(=O)O)c4cc(F)ccc4n3)cc2)c1` [HOSU-53], which IC50 [1] is on record?
**A.** 19.6 µM

**Q.** What about the “Micronucleus Test” value [2] of the same compound?
**A.** Negative

**Q.** And the HOSU-53 plasma concentration ([3]; 10 mpk PO, 0.25 h postdose, per mouse)?
**A.** 130.695 µM and 175.464 µM

**Q.** What about the HOSU-53 plasma concentration ([3]; 10 mpk PO, 0.5 h postdose, per mouse) of the same compound?
**A.** 155.968 µM and 199.774 µM

**Q.** What about the HOSU-53 plasma concentration ([3]; 10 mpk PO, 1 h postdose, per mouse) of the same compound?
**A.** 185.332 µM and 227.213 µM

**Q.** What about the HOSU-53 plasma concentration ([3]; 10 mpk PO, 2 h postdose, per mouse) of the same compound?
**A.** 171.131 µM and 199.774 µM

**Q.** What about the HOSU-53 plasma concentration ([3]; 10 mpk PO, 4 h postdose, per mouse) of the same compound?
**A.** 168.002 µM and 190.146 µM

**Q.** What about the HOSU-53 plasma concentration ([3]; 10 mpk PO, 8 h postdose, per mouse) of the same compound?
**A.** 182.925 µM and 197.848 µM

**Q.** What about the HOSU-53 plasma concentration ([3]; 10 mpk PO, 24 h postdose, per mouse) of the same compound?
**A.** 152.839 µM and 120.105 µM

**Q.** And the HOSU-53 plasma concentration ([3]; 10 mpk PO, 48 h postdose, per mouse)?
**A.** 81.835 µM and 67.6342 µM

**Q.** What about the HOSU-53 plasma concentration ([3]; 10 mpk PO, 72 h postdose, per mouse) of the same compound?
**A.** 47.1755 µM and 36.5851 µM

**Q.** And the concentration at 0.25 h ([3]; male, C57BL/6, mouse, plasma, oral, 10 mg/kg, 10 mpk PO, 0.25 h postdose, per mouse)?
**A.** 114 µM

**Q.** What about the concentration at 0.5 h ([3]; male, C57BL/6, mouse, plasma, oral, 10 mg/kg, 10 mpk PO, 0.5 h postdose, per mouse) of the same compound?
**A.** 155 µM

**Q.** And the concentration at 1 h ([3]; male, C57BL/6, mouse, plasma, oral, 10 mg/kg, 10 mpk PO, 1 h postdose, per mouse)?
**A.** 209 µM

**Q.** What about the concentration at 2 h ([3]; male, C57BL/6, mouse, plasma, oral, 10 mg/kg, 10 mpk PO, 2 h postdose, per mouse) of the same compound?
**A.** 215 µM

**Q.** And the concentration at 4 h ([3]; male, C57BL/6, mouse, plasma, oral, 10 mg/kg, 10 mpk PO, 4 h postdose, per mouse)?
**A.** 218 µM

**Q.** What about the concentration at 8 h ([3]; male, C57BL/6, mouse, plasma, oral, 10 mg/kg, 10 mpk PO, 8 h postdose, per mouse) of the same compound?
**A.** 175 µM

**Q.** What about the concentration at 24 h ([3]; male, C57BL/6, mouse, plasma, oral, 10 mg/kg, 10 mpk PO, 24 h postdose, per mouse) of the same compound?
**A.** 130 µM

**Q.** What about the concentration at 48 h ([3]; male, C57BL/6, mouse, plasma, oral, 10 mg/kg, 10 mpk PO, 48 h postdose, per mouse) of the same compound?
**A.** 75.1 µM

**Q.** And the concentration at 72 h ([3]; male, C57BL/6, mouse, plasma, oral, 10 mg/kg, 10 mpk PO, 72 h postdose, per mouse)?
**A.** 43.8 µM

**Q.** And the bioavailability ([3]; male, C57BL/6, plasma, oral, p.o. 10 mg/kg vs i.v. 3 mg/kg, mouse, read-out: Bioavailability (F))?
**A.** 85%

**Q.** And the Cmax [3, 9]?
**A.** 210 µM

**Q.** And the half-life [3, 9]?
**A.** 29 h

**Q.** What about the AUC(0-t) ([3]; male, C57BL/6, plasma, po, 10 mg/kg p.o. single dose, mouse, read-out: Plasma AUC0–72h) of the same compound?
**A.** 7960 µM·h

**Q.** And the logD [4]?
**A.** 4.36

**Q.** What about the IC50 ([5]; cell-free multi-species assay, n=1, read-out: DHODH IC50 Human) of the same compound?
**A.** 0.00069 µM

**Q.** And the IC50 ([5]; cell-free, HOSU-53, BAY, BRQ averaged from 6, 10, 4 replicates, read-out: hDHODH IC50)?
**A.** 0.00095 µM

**Q.** And the IC50 [6]?
**A.** 30.1 µM

**Q.** What about the “Day of Study (survival, per animal)” value [7] of the same compound?
**A.** 57 days and 64 days and 43 days and 63 days and 58 days and 62 days and 65 days

**Q.** What about the “CEREP Safety Screen 87: PPARγ binding” value [8] of the same compound?
**A.** PPARγ (66% binding at 1 µM)
